{"source": "patent US20230190760A1", "about": "“ADVANTAGEOUS THERAPIES FOR DISORDERS MEDIATED BY IKAROS OR AIOLOS” (C4 Therapeutics, Inc., priority 2020, published 2023)", "key": {"[1]": {"test_system": "anaplastic large cell lymphoma (ALCL) cell lines", "assay": "Anti-cancer activity in ALCL cell lines", "assay_type": "cell-based", "conditions": "four out of six cell lines were responsive; read-out: mean IC50 among the responsive lines"}, "[2]": {"test_system": "proteins in DL40 tumor lysates", "assay": "Global proteomics of ALCL ALK+ DL40 xenograft tumors, mice treated orally with 100 μg/kg", "assay_type": "in vivo, mouse", "experimental": "NOD SCI mouse bearing ALCL ALK+DL40 xenografts were treated orally with 100 μg/kg of Compound 1. After 1, 4, 24 and 48 hour treatment, biological duplicates of tumoral cells were harvested, washed twice with PBS, and snap frozen in liquid nitrogen. Samples were resuspended in lysis buffer [8 M urea, 50 mM EPPS (pH 8.5), 50 mM NaCl, lx protease inhibitor cocktail] and lysed by sonication. Lysates were centrifuged at maximum speed, reduced for 1 hour at room temperature with 5 mM TCEP, and the cysteine residues were then alkylated with 15 mM iodoacetamide (room temperature, in dark, 30 minutes). Protein content was extracted twice by methanol-chloroform precipitation and subsequent ice-cold acetone washes. Protein pellets were resuspended in 8 M urea, 50 mM EPPS (pH 8.5) buffer and protein concentrations were measured by BCA assay. Samples were then diluted to 4 M urea with 50 mM EPPS (pH 8.5) and digested at 37° C. for 1 hour with endoproteinase Lys-C, at a 1/100 enzyme/protein ratio. The mixtures were then diluted to 1 M urea with 50 mM EPPS (pH 8.5) and trypsin was added at a 1/50 enzyme/protein ratio. The reaction was incubated overnight at 37° C. and stopped by acidification with formic acid 0.5% (v/v). Peptides were loaded on tC18 SepPak solid-phase extraction cartridges and lyophilized.\nFor peptide labeling, 100 μg of peptides per sample was prepared at […] concentration in 200 mM EPPS (pH 8.5), ACN was added to a final concentration of 30% and then 50 μg of each TMT 10 reagent. After 1 hour incubation at room temperature, reactions were quenched with 0.3% hydroxylamine for 15 minutes and mixed equally. The mixed sample was desalted using the tC18 SepPak solid-phase extraction cartridges, and lyophilized. Dried peptides were resuspended in 5% ACN, 10 mM NH4HCO3 pH 8 and fractionated in a basic pH reversed phase chromatography using a HPLC equipped with a 3.5 μm XBridge Peptide BEH C18 column. 96 fractions were collected, which were consolidated into 24, of which only 12 nonadjacent samples were analyzed. Samples were desalted, dried via vacuum centrifugation and reconstituted in 12 μL of 5% formic for LC-MS/MS analysis.\nA third of each sample (4 μL) was separated by reversed phase chromatography using an EASY-Spray C18 column (2 μm particle size, 250 mm length×75 μm ID) mounted in an EASY-nLC 1200 LC pump coupled to an Orbitrap Fusion Lumos Tribid mass spectrometer. Peptides were separated using a 420 min gradient of 2 to 30% acetonitrile at a flow rate of ˜300 nL/min. Each analysis was performed using the multi-notch MS3 (SPS-MS3) scan. For the identification and relative quantification, all RAW files obtained from the mass spectrometer were transformed using SEQUEST-based software. Briefly, mass spectra were searched against the human Uniprot database (February 2016) concatenated with a database composed of all protein sequences in the reversed order as well as known contaminants. In all SEQUEST searches, precursor ion tolerance was set at 25 ppm and product ion tolerance at 0.9 Da, including methionine oxidation (+15.9949 Da) and cysteine carbamidomethylation (+57.0215 Da) as variable modifications. TMT tag (+229.1629 Da) on lysine residues and peptide N-termini were set as static modifications. Peptide-spectrum matches (PSMs) were performed using a linear discriminant analysis and adjusted to a […]. Peptide intensities were quantified by extracting the signal-to-noise ratio and proteins were further collapsed to a final protein-level FDR of 2%. Protein quantification values were exported to Excel, GraphPad Prism 7 or Perseus14 for further analysis."}, "[3]": {"target": "G1 to S Phase Transition 1 (GSPT1) (Homo sapiens, UniProt P15170)", "sequence (Q96SW2 whole entry partner, species assumed)": "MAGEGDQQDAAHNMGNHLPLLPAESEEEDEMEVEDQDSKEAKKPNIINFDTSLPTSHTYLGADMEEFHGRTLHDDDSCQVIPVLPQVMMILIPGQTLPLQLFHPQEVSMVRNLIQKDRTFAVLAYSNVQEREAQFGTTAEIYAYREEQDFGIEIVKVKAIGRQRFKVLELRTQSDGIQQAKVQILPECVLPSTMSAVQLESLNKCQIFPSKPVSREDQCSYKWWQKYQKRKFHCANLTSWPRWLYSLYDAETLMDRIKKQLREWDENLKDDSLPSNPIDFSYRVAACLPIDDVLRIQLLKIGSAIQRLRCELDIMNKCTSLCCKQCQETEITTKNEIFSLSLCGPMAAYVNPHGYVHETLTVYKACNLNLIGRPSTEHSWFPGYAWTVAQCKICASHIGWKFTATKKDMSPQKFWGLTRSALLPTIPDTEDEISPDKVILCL", "sequence (Q16531 2-1140 partner limits assumed, species assumed)": "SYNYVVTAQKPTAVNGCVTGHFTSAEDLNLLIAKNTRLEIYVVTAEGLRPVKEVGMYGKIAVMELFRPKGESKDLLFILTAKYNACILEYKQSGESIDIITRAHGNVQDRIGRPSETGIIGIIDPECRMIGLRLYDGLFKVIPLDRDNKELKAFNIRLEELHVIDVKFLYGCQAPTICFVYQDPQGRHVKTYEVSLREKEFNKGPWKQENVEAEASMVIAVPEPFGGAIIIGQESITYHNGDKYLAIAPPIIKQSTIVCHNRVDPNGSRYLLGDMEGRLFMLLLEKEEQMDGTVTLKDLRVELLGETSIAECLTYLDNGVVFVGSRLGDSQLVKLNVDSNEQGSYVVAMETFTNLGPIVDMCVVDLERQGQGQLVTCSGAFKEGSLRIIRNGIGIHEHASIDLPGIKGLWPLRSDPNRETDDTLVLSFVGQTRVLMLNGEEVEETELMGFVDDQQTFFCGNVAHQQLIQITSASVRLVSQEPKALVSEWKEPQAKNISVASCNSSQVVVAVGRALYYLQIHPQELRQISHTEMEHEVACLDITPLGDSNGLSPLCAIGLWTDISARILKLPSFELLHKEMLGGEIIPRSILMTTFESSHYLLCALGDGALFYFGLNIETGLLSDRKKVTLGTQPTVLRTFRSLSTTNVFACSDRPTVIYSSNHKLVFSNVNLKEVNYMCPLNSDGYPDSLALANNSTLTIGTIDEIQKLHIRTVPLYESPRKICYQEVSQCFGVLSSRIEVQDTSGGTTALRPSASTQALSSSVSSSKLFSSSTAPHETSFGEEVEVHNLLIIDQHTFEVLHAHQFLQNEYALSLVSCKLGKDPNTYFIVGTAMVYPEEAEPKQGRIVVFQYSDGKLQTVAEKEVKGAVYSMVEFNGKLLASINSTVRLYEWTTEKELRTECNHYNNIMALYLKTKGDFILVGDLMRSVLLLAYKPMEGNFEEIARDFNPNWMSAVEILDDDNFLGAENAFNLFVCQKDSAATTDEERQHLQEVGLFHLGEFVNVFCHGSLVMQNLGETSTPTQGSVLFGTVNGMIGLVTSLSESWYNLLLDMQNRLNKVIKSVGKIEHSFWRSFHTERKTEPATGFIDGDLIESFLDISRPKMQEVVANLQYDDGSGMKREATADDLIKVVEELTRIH", "sequence (P15170 whole entry, species assumed)": "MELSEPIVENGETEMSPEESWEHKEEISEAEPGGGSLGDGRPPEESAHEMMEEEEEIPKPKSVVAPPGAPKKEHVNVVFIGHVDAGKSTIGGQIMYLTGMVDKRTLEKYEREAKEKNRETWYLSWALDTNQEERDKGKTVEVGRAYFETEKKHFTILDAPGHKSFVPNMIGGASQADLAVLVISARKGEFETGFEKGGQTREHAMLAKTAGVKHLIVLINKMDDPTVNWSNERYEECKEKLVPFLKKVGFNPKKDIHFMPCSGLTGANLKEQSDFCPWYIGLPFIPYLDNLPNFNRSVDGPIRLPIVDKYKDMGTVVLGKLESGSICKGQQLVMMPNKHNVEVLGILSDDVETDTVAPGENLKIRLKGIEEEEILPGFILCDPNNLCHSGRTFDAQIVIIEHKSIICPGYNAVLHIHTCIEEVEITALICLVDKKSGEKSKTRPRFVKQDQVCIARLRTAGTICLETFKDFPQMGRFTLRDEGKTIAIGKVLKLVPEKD", "assay": "Targeted cell-based assay for GSPT1", "conditions": "up to 10 μM"}, "[4]": {"test_system": "KI-JK ALCL tumors", "assay": "KI-JK ALCL xenograft efficacy (Example 17)", "assay_type": "in vivo, mice", "conditions": "30 or 100 μg/kg PO daily for 21 days", "experimental": "A xenograft study was conducted in female NOD SCID mice bearing KI-JK ALCL tumors.\nData are expressed as MTV±SEM."}, "[5]": {"target": "T1, IKZF1 (Mus musculus, UniProt Q03267)", "T1 construct": "from tissue; host or cells: peripheral blood cells (PBMC) of mice, ex vivo", "T1 sequence (Q8C7D2 whole entry partner)": "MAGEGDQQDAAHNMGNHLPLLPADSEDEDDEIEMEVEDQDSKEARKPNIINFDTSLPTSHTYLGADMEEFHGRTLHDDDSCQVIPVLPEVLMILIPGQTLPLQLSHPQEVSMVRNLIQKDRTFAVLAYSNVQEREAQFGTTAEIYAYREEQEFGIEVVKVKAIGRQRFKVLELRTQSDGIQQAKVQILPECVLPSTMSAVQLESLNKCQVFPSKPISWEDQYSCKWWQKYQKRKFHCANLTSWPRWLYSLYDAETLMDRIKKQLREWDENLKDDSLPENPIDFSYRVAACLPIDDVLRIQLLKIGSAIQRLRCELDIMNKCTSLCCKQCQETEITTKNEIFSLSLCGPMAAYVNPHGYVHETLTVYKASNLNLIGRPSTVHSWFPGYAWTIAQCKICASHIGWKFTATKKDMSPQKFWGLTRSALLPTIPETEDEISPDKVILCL", "T1 sequence (Q3U1J4 2-1140 partner limits assumed)": "as the sequence (Q16531 2-1140 partner limits assumed, species assumed) above, with N417G, A494G, T744S, T1019A counted along it", "T1 sequence (Q03267 whole entry)": "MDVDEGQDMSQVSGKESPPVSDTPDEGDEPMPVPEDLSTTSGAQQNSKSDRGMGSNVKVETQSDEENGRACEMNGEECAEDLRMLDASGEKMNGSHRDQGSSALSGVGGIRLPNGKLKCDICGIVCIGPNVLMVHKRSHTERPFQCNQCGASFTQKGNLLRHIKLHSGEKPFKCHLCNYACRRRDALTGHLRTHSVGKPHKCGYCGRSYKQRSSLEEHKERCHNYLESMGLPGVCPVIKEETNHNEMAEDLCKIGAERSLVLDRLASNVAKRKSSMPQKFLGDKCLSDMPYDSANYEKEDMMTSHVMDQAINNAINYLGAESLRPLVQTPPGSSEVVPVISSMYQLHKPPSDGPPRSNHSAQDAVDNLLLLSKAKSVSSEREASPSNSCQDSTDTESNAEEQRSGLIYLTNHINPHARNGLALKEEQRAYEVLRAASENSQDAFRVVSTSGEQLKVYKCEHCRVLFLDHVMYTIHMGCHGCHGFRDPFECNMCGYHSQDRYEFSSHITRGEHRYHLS", "assay": "Ex vivo IKZF1 degradation in PBMC, mouse", "assay_type": "cell-based", "conditions": "mouse cells", "experimental": "IKZF1/3 are not degraded in mouse cells treated with thalidomide or its IMiD® analogs because of a single amino acid difference in mouse cereblon compared to human cereblon that causes steric hindrance and prevents recruitment of IKZF1/3. Ex vivo studies were performed in peripheral blood cells (PBMC) of mice, rats, dogs, and monkeys to identify relevant species for IND enabling-toxicity studies based on the degree of IKZF1 degradation by Compound 1. IKZF1 was not degraded in mouse or rat cells by Compound 1, thus, while rat could not be considered a pharmacologically relevant species for human risk assessment, it was chosen as the rodent species for toxicological studies because it is widely used in toxicity testing and a substantial historical toxicology database is available. […] Therefore, cynomolgus monkey was chosen for non-rodent toxicological studies."}, "[6]": {"test_system": "LP-1", "assay": "Anti-proliferative activity, 96 hours", "conditions": "Homo sapiens, LP-1, 96 h"}}, "data": [{"molecule": "O=C1CC[C@H](N2C(=O)c3cccc4c(Cc5ccc(CN6CCOCC6)cc5)ccc2c34)C(=O)N1", "note": "(single isomer, unassigned) [Compound 1]", "values": [{"measurement": "IC50", "setting": "[1]", "result": 1.7, "unit": "nM"}, {"measurement": "Log2 FC vs Vehicle, IKZF1", "setting": "[2]; 4 Hour", "result": "−2.466"}, {"measurement": "Log2 FC vs Vehicle, IKZF3", "setting": "[2]; 4 Hour", "result": "−2.006"}, {"measurement": "Log2 FC vs Vehicle, ACTA1", "setting": "[2]; 24 Hour", "result": "−1.089"}, {"measurement": "Log2 FC vs Vehicle, ACTN2", "setting": "[2]; 24 Hour", "result": "−1.304"}, {"measurement": "Log2 FC vs Vehicle, AK1", "setting": "[2]; 24 Hour", "result": "−1.041"}, {"measurement": "Log2 FC vs Vehicle, APOBEC2", "setting": "[2]; 24 Hour", "result": "−1.355"}, {"measurement": "Log2 FC vs Vehicle, ATP2A1", "setting": "[2]; 24 Hour", "result": "−1.427"}, {"measurement": "Log2 FC vs Vehicle, CASQ1", "setting": "[2]; 24 Hour", "result": "−1.333"}, {"measurement": "Log2 FC vs Vehicle, CKM", "setting": "[2]; 24 Hour", "result": "−1.248"}, {"measurement": "Log2 FC vs Vehicle, CKMT2", "setting": "[2]; 24 Hour", "result": "−1.544"}, {"measurement": "Log2 FC vs Vehicle, FHL1", "setting": "[2]; 24 Hour", "result": "−1.311"}, {"measurement": "Log2 FC vs Vehicle, IKZF1", "setting": "[2]; 24 Hour", "result": "−2.515"}, {"measurement": "Log2 FC vs Vehicle, IKZF3", "setting": "[2]; 24 Hour", "result": "−1.761"}, {"measurement": "Log2 FC vs Vehicle, JPH2", "setting": "[2]; 24 Hour", "result": "−1.117"}, {"measurement": "Log2 FC vs Vehicle, KLHL41", "setting": "[2]; 24 Hour", "result": "−1.142"}, {"measurement": "Log2 FC vs Vehicle, LDB3", "setting": "[2]; 24 Hour", "result": "−1.136"}, {"measurement": "Log2 FC vs Vehicle, MYBPC1", "setting": "[2]; 24 Hour", "result": "−1.366"}, {"measurement": "Log2 FC vs Vehicle, MYBPC2", "setting": "[2]; 24 Hour", "result": "−1.146"}, {"measurement": "Log2 FC vs Vehicle, MYH1", "setting": "[2]; 24 Hour", "result": "−1.258"}, {"measurement": "Log2 FC vs Vehicle, MYH2", "setting": "[2]; 24 Hour", "result": "−1.188"}, {"measurement": "Log2 FC vs Vehicle, MYH3", "setting": "[2]; 24 Hour", "result": "−1.165"}, {"measurement": "Log2 FC vs Vehicle, MYH4", "setting": "[2]; 24 Hour", "result": "−1.05"}, {"measurement": "Log2 FC vs Vehicle, MYH7", "setting": "[2]; 24 Hour", "result": "−2.977"}, {"measurement": "Log2 FC vs Vehicle, MYH7B", "setting": "[2]; 24 Hour", "result": "−1.231"}, {"measurement": "Log2 FC vs Vehicle, MYH13", "setting": "[2]; 24 Hour", "result": "−1.102"}, {"measurement": "Log2 FC vs Vehicle, MYL1", "setting": "[2]; 24 Hour", "result": "−1.3"}, {"measurement": "Log2 FC vs Vehicle, MYL4", "setting": "[2]; 24 Hour", "result": "−1.344"}, {"measurement": "Log2 FC vs Vehicle, MYLPF", "setting": "[2]; 24 Hour", "result": "−1.434"}, {"measurement": "Log2 FC vs Vehicle, MYOM1", "setting": "[2]; 24 Hour", "result": "−1.201"}, {"measurement": "Log2 FC vs Vehicle, NEB", "setting": "[2]; 24 Hour", "result": "−1.184"}, {"measurement": "Log2 FC vs Vehicle, OAS1", "setting": "[2]; 24 Hour", "result": 1.172}, {"measurement": "Log2 FC vs Vehicle, PVALB", "setting": "[2]; 24 Hour", "result": "−1.105"}, {"measurement": "Log2 FC vs Vehicle, PYGM", "setting": "[2]; 24 Hour", "result": "−1.139"}, {"measurement": "Log2 FC vs Vehicle, SPR", "setting": "[2]; 24 Hour", "result": 1.088}, {"measurement": "Log2 FC vs Vehicle, SRL", "setting": "[2]; 24 Hour", "result": "−1.252"}, {"measurement": "Log2 FC vs Vehicle, TNNC2", "setting": "[2]; 24 Hour", "result": "−1.035"}, {"measurement": "Log2 FC vs Vehicle, TNNI2", "setting": "[2]; 24 Hour", "result": "−1.377"}, {"measurement": "Log2 FC vs Vehicle, TPM1", "setting": "[2]; 24 Hour", "result": "−1.146"}, {"measurement": "Log2 FC vs Vehicle, TRIM72", "setting": "[2]; 24 Hour", "result": "−1.083"}, {"measurement": "Log2 FC vs Vehicle, TTN", "setting": "[2]; 24 Hour", "result": "−1.117"}, {"measurement": "Log2 FC vs Vehicle, ZFP91", "setting": "[2]; 24 Hour", "result": "−1.279"}, {"measurement": "fold change, IKZF1 downregulated", "setting": "[2]; 4 hours", "result": 5.5}, {"measurement": "fold change, IKZF3 downregulated", "setting": "[2]; 4 hours", "result": 4.1}, {"measurement": "selectivity, proteins degraded", "setting": "[2]; 4 hours post a single dose of 100 μg/kg, >7900 proteins detected", "result": "degrading only IKZF1/3"}, {"measurement": "effect on GSPT1", "setting": "[3]", "result": "no significant effect"}, {"measurement": "tumor volume", "setting": "[4]", "result": "decreased"}, {"measurement": "IKZF1 degradation", "setting": "[5]", "result": "not degraded"}, {"measurement": "IC50", "setting": "[6]", "result": 0.642, "unit": "nM"}]}]}
